According to ChEMBL document CHEMBL1671792, “Conformationally constrained farnesoid X receptor (FXR) agonists: heteroaryl replacements of the naphthalene” (Bioorg Med Chem Lett, 2011):
In brackets after ≈: the same amount, converted by molar mass. Activity calls are given as the source filed them. The rule behind the calls is not given here.

How the values were obtained:
[1] = target: T1, Bile acid receptor (Homo sapiens, UniProt Q96RI1); experiment: Agonist activity at human FXR LBD assessed as SRC1 peptide recruitment by FRET assay; format: functional
T1 sequence (Q96RI1 whole entry): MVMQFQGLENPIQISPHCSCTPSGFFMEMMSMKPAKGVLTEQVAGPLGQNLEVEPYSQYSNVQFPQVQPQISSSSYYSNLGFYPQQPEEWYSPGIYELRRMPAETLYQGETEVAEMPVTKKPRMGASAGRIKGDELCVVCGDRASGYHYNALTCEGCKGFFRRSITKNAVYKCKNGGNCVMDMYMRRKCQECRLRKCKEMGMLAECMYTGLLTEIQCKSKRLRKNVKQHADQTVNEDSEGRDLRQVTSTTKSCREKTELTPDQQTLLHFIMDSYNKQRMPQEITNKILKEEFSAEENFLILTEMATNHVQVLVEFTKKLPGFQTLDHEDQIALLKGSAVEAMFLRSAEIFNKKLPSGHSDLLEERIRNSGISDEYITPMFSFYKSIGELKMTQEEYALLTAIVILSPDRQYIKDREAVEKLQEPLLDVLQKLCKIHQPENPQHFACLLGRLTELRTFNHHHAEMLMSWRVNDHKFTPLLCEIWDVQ

[2] = target: T2, Bile acid receptor (Homo sapiens) (UniProt Q96RI1); experiment: Agonist activity at human FXR LBD assessed as SRC1 peptide recruitment by FRET assay relative to GW 4064; format: functional
T2 sequence (whole entry): T1 sequence (Q96RI1 whole entry)

[3] = target: T1, Bile acid receptor; experiment: Agonist activity at human FXR LBD iexpressed in monkey CV-1 cells assessed as transactivation of luciferase reporter gene expression; format: functional, cell-based
[4] = target: T2, Bile acid receptor (Homo sapiens); experiment: Agonist activity at human FXR LBD iexpressed in monkey CV-1 cells assessed as transactivation of luciferase reporter gene expression relative to GW 4064; format: functional, cell-based; design: concentration or dose not given beside the values
[5] = target: T2, Bile acid receptor (Homo sapiens); experiment: Binding affinity to human FXR by X-ray crystallography
[6] = Half life in iv dosed mouse; format: ADME, organism-based; settings: in vivo
[7] = Half life in iv dosed rat; format: ADME, organism-based; settings: in vivo
[8] = Half life in iv dosed Beagle dog; format: ADME, organism-based, Canis lupus familiaris; settings: in vivo
[9] = Half life in iv dosed cynomolgus monkey; format: ADME, organism-based, Macaca fascicularis; settings: in vivo
[10] = Clearance in iv dosed mouse; format: ADME, organism-based; settings: in vivo
[11] = Clearance in iv dosed rat; format: ADME, organism-based; settings: in vivo
[12] = Clearance in iv dosed Beagle dog; format: ADME, organism-based, Canis lupus familiaris; settings: in vivo
[13] = Clearance in iv dosed cynomolgus monkey; format: ADME, organism-based, Macaca fascicularis; settings: in vivo
[14] = Volume of distribution at steady state in iv dosed mouse; format: ADME, organism-based; settings: in vivo, read-out: Vdss
[15] = Volume of distribution at steady state in iv dosed rat; format: ADME, organism-based; settings: in vivo, read-out: Vdss
[16] = Volume of distribution at steady state in iv dosed Beagle dog; format: ADME, organism-based, Canis lupus familiaris; settings: in vivo, read-out: Vdss
[17] = Volume of distribution at steady state in iv dosed cynomolgus monkey; format: ADME, organism-based, Macaca fascicularis; settings: in vivo, read-out: Vdss
[18] = Oral bioavailability in mouse; format: ADME, organism-based; settings: in vivo
[19] = Oral bioavailability in rat; format: ADME, organism-based; settings: in vivo
[20] = Oral bioavailability in Beagle dog; format: ADME, organism-based, Canis lupus familiaris; settings: in vivo
[21] = Oral bioavailability in cynomolgus monkey; format: ADME, organism-based, Macaca fascicularis; settings: in vivo
[22] = tested on: Mus musculus; experiment: Dose normalized AUC in orally dosed mouse; format: ADME, organism-based; settings: in vivo, po
[23] = tested on: Rattus norvegicus; experiment: Dose normalized AUC in orally dosed rat; format: ADME, organism-based; settings: in vivo, po
[24] = tested on: Canis familiaris; experiment: Dose normalized AUC in orally dosed Beagle dog; format: ADME, organism-based, Canis lupus familiaris; settings: in vivo, po
[25] = tested on: Cynomolgus monkey; experiment: Dose normalized AUC in orally dosed cynomolgus monkey; format: ADME, organism-based, Macaca fascicularis; settings: in vivo, po
[26] = organism: Homo sapiens; experiment: Selectivity ratio of EC50 for human FXR to EC50 for human LRH
[27] = organism: Homo sapiens; experiment: Selectivity ratio of EC50 for human FXR to EC50 for human LXRalpha
[28] = organism: Homo sapiens; experiment: Selectivity ratio of EC50 for human FXR to EC50 for human LXRbeta
[29] = organism: Homo sapiens; experiment: Selectivity ratio of EC50 for human FXR to EC50 for human PPARalpha
[30] = organism: Homo sapiens; experiment: Selectivity ratio of EC50 for human FXR to EC50 for human PPARgamma
[31] = organism: Homo sapiens; experiment: Selectivity ratio of EC50 for human FXR to EC50 for human PPARdelta
[32] = organism: Homo sapiens; experiment: Selectivity ratio of EC50 for human FXR to EC50 for human PXR
[33] = organism: Homo sapiens; experiment: Selectivity ratio of EC50 for human FXR to EC50 for human RORalpha
[34] = organism: Homo sapiens; experiment: Selectivity ratio of EC50 for human FXR to EC50 for human RXRalpha
[35] = Solubility of compound in fasted state-simulated intestinal fluid at pH 6.5; format: physicochemical; settings: simulated gi fluid

## CC(C)c1onc(-c2c(Cl)cccc2Cl)c1COc1ccc(-c2ccc3nc(C(=O)O)cnc3c2)cc1
[1]
  EC50: 150 nM
[2]
  Activity: 96%
[3]
  EC50: 690 nM
[4]
  Activity: 109%

## CCOc1cc(C(=O)O)nc2ccc(-c3ccc(OCc4c(-c5c(Cl)cccc5Cl)noc4C(C)C)cc3)cc12
[1]
  EC50: 52 nM
[2]
  Activity: 99%
[3]
  EC50: 14 nM
[4]
  Activity: 84%

## CC(C)c1onc(-c2c(Cl)cccc2Cl)c1COc1ccc(-c2ccc3cc(C(=O)O)cnc3c2)cc1
[1]
  EC50: 200 nM
[2]
  Activity: 87%
[3]
  EC50: 260 nM
[4]
  Activity: 88%

## CC(C)Oc1cc(C(=O)O)nc2ccc(-c3ccc(OCc4c(-c5c(Cl)cccc5Cl)noc4C(C)C)cc3)cc12
[1]
  EC50: 40 nM
[2]
  Activity: 113%
[3]
  EC50: 14 nM
[4]
  Activity: 103%

## CC(C)COc1cc(C(=O)O)nc2ccc(-c3ccc(OCc4c(-c5c(Cl)cccc5Cl)noc4C(C)C)cc3)cc12
[1]
  EC50: 78 nM
[2]
  Activity: 105%
[3]
  EC50: 81 nM
[4]
  Activity: 93%

## CC(C)c1onc(-c2c(Cl)cccc2Cl)c1COc1ccc(/C=C/c2cccc(C(=O)O)c2)c(Cl)c1
[5]
  Activity: Active

## Cc1cc(-c2ccc3nc(C(=O)O)ccc3c2)ccc1OCc1c(-c2c(Cl)cccc2Cl)noc1C(C)C
[1]
  EC50: 110 nM
[2]
  Activity: 100%
[3]
  EC50: 44 nM
[4]
  Activity: 94%

## CC(C)c1onc(-c2c(Cl)cccc2Cl)c1COc1ccc(-c2ccc3cc(C(=O)O)ncc3c2)cc1
[1]
  EC50: 120 nM
[2]
  Activity: 83%
[3]
  EC50: 77 nM
[4]
  Activity: 86%
[6]
  half-life: 4.17 h
[7]
  half-life: 1.47 h
[8]
  half-life: 3.83 h
[9]
  half-life: 10.3 h
[10]
  clearance: 29 mL/min/kg
[11]
  clearance: 18 mL/min/kg
[12]
  clearance: 8.2 mL/min/kg
[13]
  clearance: 11 mL/min/kg
[14]
  Vd: 5.1 L/kg
[15]
  Vd: 1.8 L/kg
[16]
  Vd: 2 L/kg
[17]
  Vd: 3.1 L/kg
[18]
  bioavailability: 6.3%
[19]
  bioavailability: 30%
[20]
  bioavailability: 15%
[21]
  bioavailability: 2.5%
[22]
  AUC: 36 ng·kg·h/mg/mL
[23]
  AUC: 300 ng·kg·h/mg/mL
[24]
  AUC: 320 ng·kg·h/mg/mL
[25]
  AUC: 40 ng·kg·h/mg/mL
[5]
  Activity: Active

## Cc1cc(C(=O)O)nc2ccc(-c3ccc(OCc4c(-c5c(Cl)cccc5Cl)noc4C(C)C)cc3)cc12
[1]
  EC50: 81 nM
[2]
  Activity: 108%
[3]
  EC50: 24 nM
[4]
  Activity: 107%

## CC(C)c1onc(-c2c(Cl)cccc2Cl)c1COc1ccc(-c2cc3ccc(C(=O)O)nc3cc2F)cc1
[1]
  EC50: 240 nM
[2]
  Activity: 115%
[3]
  EC50: 110 nM
[4]
  Activity: 107%

## CCCOc1cc(C(=O)O)nc2ccc(-c3ccc(OCc4c(-c5c(Cl)cccc5Cl)noc4C(C)C)cc3)cc12
[1]
  EC50: 59 nM
[2]
  Activity: 113%
[3]
  EC50: 22 nM
[4]
  Activity: 93%

## CC(C)c1onc(-c2c(Cl)cccc2Cl)c1COc1ccc(-c2ccc3c(C(=O)O)cccc3c2)cc1
[2]
  Activity: 134%
[4]
  Activity: 104%
[23]
  AUC: 23 ng·kg·h/mg/mL
[25]
  AUC: 1130 ng·kg·h/mg/mL
[26]
  Ratio EC50: 100
[27]
  Ratio EC50: 100
[28]
  Ratio EC50: 100
[29]
  Ratio EC50: 100
[30]
  Ratio EC50: 100
[31]
  Ratio EC50: 100
[32]
  Ratio EC50: 100
[33]
  Ratio EC50: 100
[34]
  Ratio EC50: 100
[35]
  solubility: 1 ng/mL (≈ 1.88 nM)
[5]
  Activity: Active

## CCc1cc(C(=O)O)nc2ccc(-c3ccc(OCc4c(-c5c(Cl)cccc5Cl)noc4C(C)C)cc3)cc12
[1]
  EC50: 75 nM
[2]
  Activity: 106%
[3]
  EC50: 32 nM
[4]
  Activity: 109%

## CC(C)c1onc(-c2c(Cl)cccc2Cl)c1COc1ccc(-c2ccc3nc(C(=O)O)cc(O)c3c2)cc1
[1]
  EC50: 51 nM
[2]
  Activity: 91%
[3]
  EC50: > 10000 nM

## COc1cc(C(=O)O)nc2ccc(-c3ccc(OCc4c(-c5c(Cl)cccc5Cl)noc4C(C)C)cc3)cc12
[1]
  EC50: 58 nM
[2]
  Activity: 113%
[3]
  EC50: 17 nM
[4]
  Activity: 107%

## CC(C)c1onc(-c2c(Cl)cccc2Cl)c1COc1ccc(-c2ccc3c(C(=O)O)ccnc3c2)cc1
[1]
  EC50: 340 nM
[2]
  Activity: 99%
[3]
  EC50: 560 nM
[4]
  Activity: 85%

## Cc1cc(OCc2c(-c3c(Cl)cccc3Cl)noc2C(C)C)ccc1-c1ccc2nc(C(=O)O)ccc2c1
[1]
  EC50: 250 nM
[2]
  Activity: 87%
[3]
  EC50: 52 nM
[4]
  Activity: 91%

## Cc1nc(C(=O)O)nc2ccc(-c3ccc(OCc4c(-c5c(Cl)cccc5Cl)noc4C(C)C)cc3)cc12
[1]
  EC50: 140 nM
[2]
  Activity: 102%
[3]
  EC50: 1000 nM
[4]
  Activity: 127%

## CC(C)c1onc(-c2c(Cl)cccc2Cl)c1COc1ccc(-c2ccc3nc(C(=O)O)nnc3c2)cc1
[1]
  EC50: 360 nM
[2]
  Activity: 100%
[3]
  EC50: > 10000 nM

## Cc1cc2cc(-c3ccc(OCc4c(-c5c(Cl)cccc5Cl)noc4C(C)C)cc3)ccc2nc1C(=O)O
[1]
  EC50: 140 nM
[2]
  Activity: 107%
[3]
  EC50: 38 nM
[4]
  Activity: 101%

## CC(C)c1onc(-c2c(Cl)cccc2Cl)c1COc1ccc(-c2ccc3c(C(=O)O)nccc3c2)cc1
[1]
  EC50: 380 nM
[2]
  Activity: 92%
[3]
  EC50: 190 nM
[4]
  Activity: 102%
